Source: patent US20150064252A1, “SOLID DISPERSION FORMULATION OF AN ANTIVIRAL COMPOUND” (Gilead Pharmasset LLC, priority 2013, published 2015)

Columns and labels:
[1] = Pharmacokinetics of Compound I after single and multiple oral doses of solid dispersion tablets; assay type: in vivo, human; conditions: for half-life: t1/2
Protocol: The Compound I formulation is prepared as described above by combining Compound I amorphous free base in a 1:1 ratio by mass with copovidone, which is all dissolved in ethanol and spray dried to produce the Compound I solid dispersion. The Compound I solid dispersion is then mixed with various excipients in a dry granulation process to produce tablets that are film coated prior to packaging.
5 mg, 25 mg, 50 mg, and 100 mg tablet formulations were prepared according to Tables 1A and 1B).

[2] = test system: HCV infection of genotypes 1 to 6; conditions: cited from earlier work
[3] = Spray dry feed solution and solid dispersion evaluation (solubility, stability); assay type: physicochemical
Protocol: The spray dry feed solution was prepared by solubilizing Compound I and polymer in the feed solvent. In certain cases, aggressive mixing or homogenization can be used to avoid clumping of the composition.
Different polymers were tested for preferred characteristics in the solid dispersions.
The feed solution was initially evaluated for appropriate solvent with regard to solubility, stability, and viscosity. […] Ethanol and methanol-based feed stocks were assessed for preparation ease and spray dried at a range of inlet and outlet temperatures to assess the robustness of the spray dry process. Both solvents gave rapid dissolution of Compound I and copovidone.

[4] = Food effect on Compound I pharmacokinetics (fed vs fasted, light or high-fat breakfast); assay type: in vivo, human; conditions: for AUCinf % GLSM Ratio (Fed/Fasted) / AUClast % GLSM Ratio (Fed/Fasted) / Cmax % GLSM Ratio (Fed/Fasted) / Cmax / AUC(0-inf) / AUC(0-t): 100 mg; for Cmax / AUC(0-inf) / AUC(0-t): human, plasma, oral, N = 12; for AUC(0-inf): read-out: AUCinf GLSM; for AUC(0-t): read-out: AUClast GLSM
[5] = high-fat/high-calorie breakfast vs fasted
[6] = 100 mg fasted, high-fat breakfast cohort (Cohort 6)
[7] = 100 mg fasted, light breakfast cohort (Cohort 5)

For `COC[C@H]1C[C@@H](c2ncc(-c3ccc4c(c3)COc3cc5c(ccc6nc([C@@H]7CC[C@H](C)N7C(=O)[C@@H](NC(=O)OC)C(C)C)[nH]c65)cc3-4)[nH]2)N(C(=O)[C@H](NC(=O)OC)c2ccccc2)C1` [Compound I, Methyl {(2S)-1-[(2S,5S)-2-(9-{2-[(2S,4S)-1-{(2R)-2-[(methoxycarbonyl)amino]-2-phenylacetyl}-4-(methoxymethyl)pyrrolidin-2-yl]-1H-imidazol-5-yl}-1,11-dihydroisochromeno[4′,3′:6,7]naphtho[1,2-d]imidazol-2-yl)-5-methylpyrrolidin-1-yl]-3-methyl-1-oxobutan-2-yl}carbamate], the “dose proportionality of exposure (AUC and Cmax)” value ([1]; human, in vivo) was “nonlinear PK”, the AUC(0-inf) ([1]; human, in vivo, 5 mg) was 159 ng·h/mL and the AUC(0-t) ([1]; human, in vivo, 5 mg) was 134 ng·h/mL. For the same compound, the CL/F ([1]; human, in vivo, 5 mg) was 58,398.0 mL/h, the Cmax ([1]; human, in vivo, 5 mg) was 22.4 ng/mL and the Tmax ([1]; human, in vivo, 5 mg, Tmax) was 1.5 h. For the same compound, the half-life ([1]; human, in vivo, 5 mg) was 11.2 h, the AUC(0-inf) ([1]; human, in vivo, 50 mg) was 3020 ng·h/mL and the AUC(0-t) ([1]; human, in vivo, 50 mg) was 2970 ng·h/mL. The CL/F ([1]; human, in vivo, 50 mg) was 19,188.4 mL/h, the Cmax ([1]; human, in vivo, 50 mg) was 371 ng/mL and the Tmax ([1]; human, in vivo, 50 mg, Tmax) was 2.5 h. The half-life ([1]; human, in vivo, 50 mg) was 13.6 h, the AUC(0-inf) ([1]; human, in vivo, 100 mg) was 5060 ng·h/mL and the AUC(0-t) ([1]; human, in vivo, 100 mg) was 4990 ng·h/mL. The CL/F ([1]; human, in vivo, 100 mg) was 24,617.9 mL/h, the Cmax ([1]; human, in vivo, 100 mg) was 575 ng/mL and the Tmax ([1]; human, in vivo, 100 mg, Tmax) was 2.5 h. The half-life ([1]; human, in vivo, 100 mg) was 15.7 h, the AUC(0-inf) ([1]; human, in vivo, 150 mg) was 4980 ng·h/mL and the AUC(0-t) ([1]; human, in vivo, 150 mg) was 4930 ng·h/mL. It also gave a Cmax ([1]; human, in vivo, 150 mg) of 608 ng/mL, a Tmax ([1]; human, in vivo, 150 mg, Tmax) of 2.75 h and a half-life ([1]; human, in vivo, 150 mg) of 16.2 h. The AUC(0-inf) ([1]; human, in vivo, 450 mg) was 9580 ng·h/mL, the AUC(0-t) ([1]; human, in vivo, 450 mg) was 9500 ng·h/mL and the CL/F ([1]; human, in vivo, 450 mg) was 53,676.4 mL/h. For the same compound, the Cmax ([1]; human, in vivo, 450 mg) was 1120 ng/mL, the Tmax ([1]; human, in vivo, 450 mg, Tmax) was 3.25 h and the half-life ([1]; human, in vivo, 450 mg) was 15 h. The Tmax ([1]; human, in vivo, po, median Tmax (time of maximum plasma concentrations)) was 1.5 to 3.25 h, the “mean plasma concentrations at 24 hours postdose relative to protein-adjusted EC50 for genotype 1 to 6 HCV replicons” value ([1]; multiple once-daily doses greater than 5 mg) was “above the protein-adjusted concentration of a compound inhibiting virus replication by 50% (EC50)” and the anti-HCV activity [2] was “potent anti-HCV activity”. For the same compound, the “solubility in feed solvent” value ([3]; ethanol, methanol, acetone, and dichloromethane (DCM)) was “excellent solubility”, the “chemical stability in feed solution” value ([3]; ethanolic feed solution) was “good chemical stability” and the “AUCinf % GLSM Ratio (Fed/Fasted)” value ([4]; high-fat breakfast) was 86.30%. For the same compound, the “AUClast % GLSM Ratio (Fed/Fasted)” value ([4]; high-fat breakfast) was 86.02%, the “Cmax % GLSM Ratio (Fed/Fasted)” value ([4]; high-fat breakfast) was 75.02% and the “AUCinf % GLSM Ratio (Fed/Fasted)” value ([4]; light breakfast) was 124.72%. The “AUClast % GLSM Ratio (Fed/Fasted)” value ([4]; light breakfast) was 124.84%, the “Cmax % GLSM Ratio (Fed/Fasted)” value ([4]; light breakfast) was 134.89% and the “effect of food on absorption and bioavailability” value ([4]; formulated as a solid dispersion) was “slowed the rate of absorption”. The “decrease in AUC with food” value [4, 5] was 14%, the “decrease in Cmax with food” value [4, 5] was 25% and the Cmax [4, 6] was 486 ng/mL. For the same compound, the AUC(0-inf) [4, 6] was 3790 ng·h/mL, the AUC(0-t) [4, 6] was 3750 ng·h/mL and the Cmax [4, 7] was 582 ng/mL. The AUC(0-inf) [4, 7] was 5470 ng·h/mL, the AUC(0-t) [4, 7] was 5390 ng·h/mL and the Cmax ([4]; 100 mg fed, high-fat breakfast) was 364 ng/mL. The AUC(0-inf) ([4]; 100 mg fed, high-fat breakfast) was 3270 ng·h/mL, the AUC(0-t) ([4]; 100 mg fed, high-fat breakfast) was 3220 ng·h/mL and the Cmax ([4]; 100 mg fed, light breakfast) was 785 ng/mL. For the same compound, the AUC(0-inf) ([4]; 100 mg fed, light breakfast) was 6820 ng·h/mL, the AUC(0-t) ([4]; 100 mg fed, light breakfast) was 6730 ng·h/mL and the “increase in AUC with food” value ([4]; light breakfast vs fasted) was 25%. The “increase in Cmax with food” value ([4]; light breakfast vs fasted) was 35%.
